Reference: article PMC6053381, “Novel 2-phenyloxypyrimidine derivative induces apoptosis and autophagy via inhibiting PI3K pathway and activating MAPK/ERK signaling in hepatocellular carcinoma cells” (Scientific Reports, 2018)

Legend:
Format in all cases: cell-based
[1] = system: SMMC-7721; experiment: CellTiter-Glo luminescent cell viability assay; conditions: Homo sapiens, SMMC-7721, 120 h incubation, read-out: Anti-proliferative activity IC50 SMMC-7721
Excerpt: (§1) The in vitro antitumor activity of all compounds was screened against six HCC cell lines by CellTiter-Glo luminescent cell viability assay as described earlier. […] After a comprehensive assessment of PDGFR inhibition, cellular activity against HCC cells as well as potential druggability, E5 was chosen to investigate its kinase profiling, antitumor activity and molecular mechanism in the following study. […]
(§2) authenticated by using short tandem repeat (STR) matching analysis. No mycoplasma contamination was detected.
(§3) CellTiter-Glo luminescent cell viability assay
(§4) For experiments hepatocellular carcinoma cells were seeded at 4000 cells per well in 96-well plates. After overnight incubation, solution of compounds in DMSO at various concentrations were added to the cells and further incubated for 120 h. Cell viability was measured with the CellTiter-Glo Luminescent Cell Viability Assay (Promega) according to the manufacturer’s instructions. Luminescence was measured using an EnVision Multilabel Plate Reader (Perkin-Elmer). The cytotoxicity of the compounds was expressed as the percent age of luminescence relative to that of untreated cells . The concentration of compound producing 50% of cell proliferation (IC50) was calculated by nonlinear regression analysis of the response-concentration (log) curve, using the Graph-Pad Prism program package (Graph Pad Software; San Diego, CA). Results are expressed as the means of two […] experiments

[2] = system: Hep3B; experiment: CellTiter-Glo luminescent cell viability assay; conditions: Homo sapiens, Hep3B, 120 h incubation, read-out: Anti-proliferative activity IC50 Hep3B
Excerpt: as §1, §2, §3, §4

[3] = system: BEL7404; experiment: CellTiter-Glo luminescent cell viability assay; conditions: Homo sapiens, BEL-7404, 120 h incubation, read-out: Anti-proliferative activity IC50 BEL7404
Excerpt: as §1, §2, §3, §4

[4] = system: SNU368; experiment: CellTiter-Glo luminescent cell viability assay; conditions: 120 h incubation, read-out: Anti-proliferative activity IC50 SNU368
Excerpt: as §1, §2, §3, §4

[5] = system: MHCC97-L; experiment: CellTiter-Glo luminescent cell viability assay; conditions: MHCC97L, 120 h incubation, read-out: Anti-proliferative activity IC50 MHCC97-L
Excerpt: as §1, §2, §3, §4

[6] = system: QGY-7703; experiment: CellTiter-Glo luminescent cell viability assay; conditions: Homo sapiens, QGY-7703, 120 h incubation, read-out: Anti-proliferative activity IC50 QGY-7703
Excerpt: as §1, §2, §3, §4

[7] = system: HepG2 cells; experiment: Colony formation assay; conditions: 0–20 μM, 24 h treatment, two weeks culture
Protocol: (§5) Cells (300/well) were seeded in 24-well plates and incubated overnight in a humidified atmosphere of 5% CO2 at 37 °C. Incremental concentrations of E5 (0–20 μM) were then added, and the medium was replaced with fresh culture medium containing 10% FBS after 24 h. After two weeks of culture, colonies were fixed with methanol, stained with 1% crystal violet and colonies containing more than 50 cells were counted.

[8] = system: Bel7404 cells; experiment: Colony formation assay; conditions: 0–20 μM, 24 h treatment, two weeks culture
Protocol: as §5

[9] = system: HepG2 cells; experiment: Autophagy: LC3-I to LC3-II conversion, Western blot
Excerpt: (§6) To investigate whether E5 triggers autophagic cell death in HCC cells, several characteristic events of autophagy were examined using different techniques. First, E5 stimulated LC3 puncta formation in HCC cells transfected with adenovirus expressing GFP-LC3 fusion protein as detected by fluorescence microscopy (Fig. 6A). […] Third, the effects of E5 on autophagy flux was examined by co-treatment of E5 with chloroquine (CQ), an inhibitor that prevents the formation of autolysosomes by inhibiting autophagosome-lysosome fusion and […] degradation. […] Fourth, E5 increased the expression of Atg5, which is essential for the elongation of autophagosomes (Fig. 6B), and the cell viability by E5 treatment was increased in HCC cells by knockdown of Atg5 (Fig. 6E). Finally, treatment with 3-methyladenine (3-MA), an autophagy inhibitor, partially reversed E5-induced cell death in HCC cells (Fig. 6F).
(§7) After treatment with E5 for 24 h, cells were lysed in RIPA cell lysis buffer. Equal amount of protein (30–40 μg) was separated on a 12% or 15% SDS-PAGE and transferred electrophoretically onto a 0.45 μm PVDF membrane. Then, the membrane was blocked for 2 h at room temperature with 5% non-fat dried milk in TBS buffer and incubated with appropriate antibodies at 1:1000 (overnight, 4 °C). […]

[10] = system: Bel7404 cells; experiment: as above
Excerpt: as §6, §7

[11] = system: HepG2 cells; experiment: MTT cell viability assay; conditions: Homo sapiens
Protocol: (§8) To reconfirm the biological activity, we chose the most sensitive cell line Bel7404 from cellular assay and the widely used and the most characterized cell line HepG2 to examine the effects of E5 on cell proliferation by MTT assay. […] Given that cell cycle arrest plays a significant role in inhibiting cancer cell growth, we subsequently examined the effects of E5 on cell cycle distribution of Bel7404 and HepG2 cells.
(§9) Cell viability was measured by methyl thiazolyl tetrazolium (MTT) assay. Cells were seeded in 96-well plate at a density of 1 × 10^4 cells/well. After overnight incubation, solution of E5 in DMSO with incremental concentrations (0–30 μM) were added to the cells and further incubated for 3 days. During this period, three wells were selected from each group of cells every day for the MTT (50 μg/well) assay. After the cells had been incubated at 37 °C for 4 h, the reaction was stopped by adding 150 μL/well of DMSO, and incubating for 10 min. The absorbance was measured at a wavelength of 490 nm by a Microplate Reader (BioTek, USA).

[12] = system: Bel7404 cells; experiment: MTT cell viability assay; conditions: Homo sapiens
Protocol: as §8, §9

- IC50 [1]: 1 µM
- IC50 [2]: 2.6 µM
- IC50 [3]: 0.8 µM
- IC50 [4]: 8.9 µM
- IC50 ([11]; HepG2, 24 h, 24 h): 8.49 ± 0.82 µM
- IC50 ([11]; HepG2, 48 h, 48 h): 5.44 ± 0.23 µM
- IC50 ([11]; HepG2, 72 h, 72 h): 4.72 ± 0.96 µM
- IC50 ([12]; BEL-7404, 24 h): 18.2 ± 2.38 µM
- IC50 ([12]; BEL-7404, 48 h): 9.68 ± 1.46 µM
- IC50 ([12]; BEL-7404, 72 h): 6.62 ± 0.15 µM
Structure (SMILES): Cc1ccc(NC(=O)c2ccc(CN3CCN(C)CC3)cc2)cc1Oc1nccc(-c2cc3ccccc3o2)n1 [E5, N-(3-((4-(benzofuran-2-yl)pyrimidin-2-yl)oxy)-4-methylphenyl)-4-((4-methylpiperazin-1-yl)methyl)benzamide]
- IC50 [5]: 10 µM
- IC50 [6]: 15.1 µM
- Effect on clonogenicity [7]: significantly inhibited the clonogenicity
- Effect on clonogenicity [8]: significantly inhibited the clonogenicity
- Conversion of LC3-I to LC3-II [9]: induced the conversion of LC3-I to LC3-II in a dose- and time-dependent manner
- Conversion of LC3-I to LC3-II [10]: induced the conversion of LC3-I to LC3-II in a dose- and time-dependent manner
